The record followed here is publication PMC6098951, “Design and synthesis of new esters of terpenoid alcohols as 15-lipoxygenase inhibitors” (Iranian Journal of Basic Medical Sciences, 2018).

Molecules are shown by their SMILES. Like-named read-outs stand apart in the source and are kept apart here.

Series [1] concerns the target T1, SLO (soybean 15-lipoxygenase: L1; EC 1,13,11,12) (Glycine max, UniProt P08170).
T1 sequence (P08170 1-839): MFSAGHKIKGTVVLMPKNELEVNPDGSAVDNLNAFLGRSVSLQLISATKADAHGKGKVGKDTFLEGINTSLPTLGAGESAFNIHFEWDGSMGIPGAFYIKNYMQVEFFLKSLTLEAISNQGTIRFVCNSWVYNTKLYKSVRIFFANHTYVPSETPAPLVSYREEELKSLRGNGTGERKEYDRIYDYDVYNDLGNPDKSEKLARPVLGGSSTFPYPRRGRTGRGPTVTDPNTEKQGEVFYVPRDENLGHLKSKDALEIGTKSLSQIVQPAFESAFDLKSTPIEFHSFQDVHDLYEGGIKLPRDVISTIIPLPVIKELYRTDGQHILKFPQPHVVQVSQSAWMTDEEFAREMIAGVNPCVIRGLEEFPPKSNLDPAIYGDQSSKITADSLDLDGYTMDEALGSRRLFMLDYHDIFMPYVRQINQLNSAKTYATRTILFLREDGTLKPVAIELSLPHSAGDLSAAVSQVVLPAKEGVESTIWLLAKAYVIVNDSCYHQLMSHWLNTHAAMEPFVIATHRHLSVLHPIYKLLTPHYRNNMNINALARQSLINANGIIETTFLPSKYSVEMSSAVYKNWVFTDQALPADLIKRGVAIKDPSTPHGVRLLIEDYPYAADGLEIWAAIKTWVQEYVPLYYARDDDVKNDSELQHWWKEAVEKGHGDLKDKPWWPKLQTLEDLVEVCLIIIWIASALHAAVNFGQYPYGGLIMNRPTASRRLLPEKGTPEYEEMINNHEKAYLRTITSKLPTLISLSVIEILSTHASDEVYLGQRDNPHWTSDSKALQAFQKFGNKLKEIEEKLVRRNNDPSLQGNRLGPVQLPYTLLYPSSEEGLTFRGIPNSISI
The experiment in a line: 15-lipoxygenase inhibitory assessment (peroxide formation method). Conditions: for IC50: SLO. Type of series: biochemical. The protocol: Linoleic acid and two assay solutions (A and B) were prepared in advance. Solution A was 50 mM (3-dimethylaminobenzoic acid) (DMAB) in l00 mM phosphate buffer (pH 7.0). Solution B was a mixture of l0 mM (3-methyl-2-benzothiazolonhydrazone) (MBTH) (3 ml), hemoglobin (5 mg/ml, 3 ml) in 50 mM phosphate buffer at pH 5.0 (25 ml). A linoleic acid solution was prepared by mixing 5 mg of linoleic acid with 0.5 ml ethanol and then diluting with KOH 100 mM to a final volume of 5 ml. In the standard assay, the sample in ethanol (25 µl), SLO (4,000 units/ml in 50 mM phosphate buffer pH 7.0; 25 µl), and phosphate buffer pH 7.0 (50 mM; 900 µl) were mixed in a test tube, and pre-incubation was carried out for 5 min at room temperature. A control test was performed with the same volume of ethanol. After pre-incubation, linoleic acid solution (50 µl) was added to start the peroxidation reaction, and, 7 min later, solution A (270 µl) and then solution B (130 µl) were added to start the color formation. Further, 5 min later, 200 µl of a 2 % sodium dodecyl sulfate (SDS) solution was added to terminate the reaction. The absorbance at 598 nm was compared to control test.
The inhibitory activity of all synthetic compounds against SLO (soybean 15-lipoxygenase: L1; EC 1,13,11,12) was determined using the peroxide formation method ([13], [14]). In this method, the basis of evaluation of lipoxygenase activity is measuring the concentration of fatty acid peroxide. All measurements were compared with 4-methyl-2-(4-methylpiperazinyl)pyrimido[4,5-b]benzothiazine (4-MMPB), one of the known lipoxygenase inhibitors (Table 1).

Series [2] is described as follows: DPPH bleaching (radical scavenging). The settings on record: 25 μM DPPH in ethanol, 30 min at room temperature, absorbance 517 nm; ± SEM. The protocol: DPPH solution (25 μM) in absolute ethanol was prepared. […] Ethanol was used as control solution. After 30 min at room temperature, the absorbance was recorded at 517 nm.
The radical scavenging ability of all synthetic compounds using stable free radicals (DPPH: 2,2-diphenyl-
1-picrylhydrazyl) has been previously measured (Table 1) ([15]). In this assessment, the DPPH bleaching potency of the synthetic compounds has been reported as IC50 values.

Where [3] appears, read: linoleic acid substrate, pH 7.0, absorbance 598 nm, ± SEM, read-out: Lipoxygenase inhibition IC50.
Where [4] appears, read: read-out: IC50 inhibitory activity against soybean 15-lipoxygenase (abstract).

In turn, `COc1cc(C(=O)O[C@H]2C3(C)CCC(C3)C2(C)C)ccc1O` (stereo partly drawn) [2a, (2S)-1,3,3-trimethylbicyclo[2.2.1]heptan-2-yl 4-hydroxy-3-methoxybenzoate] gave a melting point of 120 to 122 °C. The half-inhibitory concentration (IC50) in series [1] (setting [3]) was found to be 40.1 ± 2.2 µM. In series [2], this compound yielded an IC50 of over 500 µM.

Turning to `CC12CCC(C1)C(C)(C)[C@H]2OC(=O)c1ccc(O)c(O)c1` (stereo partly drawn) [2b, (2S)-1,3,3-trimethylbicyclo[2.2.1]heptan-2-yl 3,4-dihydroxybenzoate], the melting point lay within 58 to 61 °C. Also, the IC50 in series [1] (setting [3]) was found to be 1.68 ± 0.61 µM. The compound also displayed an IC50 in series [2] of 10 ± 1 µM.

As to `COc1cccc(C(=O)O[C@H]2C3(C)CCC(C3)C2(C)C)c1` (stereo partly drawn) [2c, (2S)-1,3,3-trimethylbicyclo[2.2.1]heptan-2-yl 3-methoxybenzoate], the IC50 in series [1] (setting [3]) and in series [2] was over 500 µM each time.

In the case of `COc1ccc(C(=O)O[C@H]2C3(C)CCC(C3)C2(C)C)cc1OC` (stereo partly drawn) [2d, (2S)-1,3,3-trimethylbicyclo[2.2.1]heptan-2-yl 3,4-dimethoxybenzoate], the IC50 in series [1] (setting [3]) and in series [2] was over 500 µM each time.

For the compound `CC12CCC(C1)C(C)(C)[C@H]2OC(=O)c1cc(O)c(O)c(O)c1` (stereo partly drawn) [2e, (2S)-1,3,3-trimethylbicyclo[2.2.1]heptan-2-yl 3,4,5-trihydroxybenzoate], the melting point lay within 171 to 173 °C. In addition, the 50% inhibitory concentration (IC50) in series [1] (setting [3]) stood at 1.71 ± 0.41 µM. Moreover, the IC50 in series [2] came to 3.46 ± 0.33 µM.

Take `COc1cc(/C=C/C(=O)O[C@H]2C3(C)CCC(C3)C2(C)C)ccc1O` (stereo partly drawn) [2f, (2S)-1,3,3-trimethylbicyclo[2.2.1]heptan-2-yl(E)-3-(4-hydroxy-3-methoxyphenyl)acrylate]: the IC50 in series [1] (setting [3]) was 194 ± 11.3 µM; in series [2], over 500 µM.

Take `CC12CCC(C1)C(C)(C)[C@H]2OC(=O)/C=C/c1ccc(O)c(O)c1` (stereo partly drawn) [2g, (2S)-1,3,3-trimethylbicyclo[2.2.1]heptan-2-yl (E)-3-(3,4-dihydroxyphenyl)acrylate]: the IC50 in series [1] (setting [3]) was 1.67 ± 0.22 µM; in series [2], 10.9 ± 1.1 µM.

On to `COc1cc(C(=O)O[C@@H]2CC3CCC2(C)C3(C)C)ccc1O` (stereo partly drawn) [2h, (2R)-1,7,7-trimethylbicyclo[2.2.1]heptan-2-yl 4-hydroxy-3-methoxybenzoate], for which the IC50 is 273 ± 11.3 µM in series [1] (setting [3]) and over 500 µM in series [2].

For `COc1cc(C(=O)OC23CC4CC(CC(C4)C2)C3)ccc1O` [2i, (3s,5s,7s)-adamantan-1-yl 4-hydroxy-3-methoxy benzoate], the melting point lay within 136 to 139 °C. In addition, the IC50 in series [1] (setting [3]) came to 164 ± 13.2 µM. Also, the half-inhibitory concentration (IC50) in series [2] was over 500 µM.

Compound `O=C(OC12CC3CC(CC(C3)C1)C2)c1ccc(O)c(O)c1` [2j, (3s,5s,7s)-adamantan-1-yl 3,4-dihydroxybenzoate] registered a melting point of 170 to 173 °C. Also, in series [1] (setting [4]), the IC50 amounted to 0.95 µM. Further, in series [2], the IC50 is 9.1 ± 0.79 µM.

`O=C(OC12CC3CC(CC(C3)C1)C2)c1cc(O)c(O)c(O)c1` [2k, (3s,5s,7s)-adamantan-1-yl 3,4,5-trihydroxybenzoate] came in with a melting point of 195 to 199 °C. For the same compound, the IC50 in series [1] (setting [3]) is 2.28 ± 0.1 µM. In addition, the IC50 in series [2] is 4.5 ± 0.19 µM.

Regarding `O=C(/C=C/c1ccc(O)c(O)c1)OC12CC3CC(CC(C3)C1)C2` [2l, (3s,5s,7s)-adamantan-1-yl (E)-3-(3,4-dihydroxyphenyl) acrylate], the melting point was 191 to 196 °C. The IC50 in series [1] (setting [3]) was found to be 3.9 ± 0.61 µM. The IC50 in series [2] was found to be 18 ± 1.9 µM.

In the case of `O=C(OCC12CC3CC(CC(C3)C1)C2)c1ccc(O)c(O)c1` [2m, (3r,5r,7r)-adamantan-1-yl)methyl 3,4-dihydroxybenzoate], the melting point is 212 to 217 °C. In addition, the IC50 in series [1] (setting [3]) was determined as 3.57 ± 0.19 µM. The compound further came in with an IC50 in series [2] of 10.8 ± 0.67 µM.

`O=C(/C=C/c1ccc(O)c(O)c1)OCC12CC3CC(CC(C3)C1)C2` [2n, ((3r,5r,7r)-adamantan-1-yl)methyl(E)-3-(3,4-dihydroxyphenyl)acrylate] returned a melting point of 161 to 164 °C. For the same compound, the IC50 in series [1] (setting [3]) was found to be 2.7 ± 0.13 µM. In addition, in series [2], the half-inhibitory concentration (IC50) came out at 5.98 ± 0.53 µM.

As to `CC1(C)C2CCC1(C)[C@H](OC(=O)c1ccc(O)c(O)c1)C2` (stereo partly drawn) [2o, (2R)-1,7,7-trimethylbicyclo[2.2.1]heptan-2-yl 3,4-dihydroxybenzoate], the melting point is 40 to 42 °C. Further, the IC50 in series [1] (setting [4]) came to 0.78 µM. The compound further gave an IC50 in series [2] of 9.4 ± 0.81 µM.

With `CCOC(=O)c1ccc(O)c(O)c1` [2p, ethyl catechuate], the figures for the IC50 in series [1] (setting [3]) and in series [2] were 6.5 ± 0.53 µM and 9.2 ± 0.45 µM, respectively. Also, the “fold less inhibitory potency versus 2b” value in series [1] (lipoxygenase inhibition IC50 compared with 2b) was “about 5 fold”.

The compound `O=C(NC12CC3CC(CC(C3)C1)C2)c1ccc(O)c(O)c1` [3a', N-((3s,5s,7s)-adamantan-1-yl)-3,4-dihydroxybenzamide] gave a melting point of 209 to 211 °C. For the same compound, the half-maximal inhibitory concentration (IC50) in series [1] (setting [3]) was determined as 5.4 ± 0.55 µM. This compound gave an IC50 in series [2] of 6.5 ± 0.43 µM.

`COc1cc(/C=C/C(=O)NC23CC4CC(CC(C4)C2)C3)ccc1O` [3b', (E)-N-((3s,5s,7s)-adamantan-1-yl)-3-(4-hydroxy-3-methoxyphenyl)acrylamide] had a melting point of 130 to 132 °C. The IC50 in series [1] (setting [3]) was determined as 188 ± 14 µM. The same compound showed an IC50 in series [2] of 5.05 ± 4.08 µM.

As for `Cc1nc(N2CCN(C)CC2)nc2c1Sc1ccccc1N2` [4-MMPB, 4-methyl-2-(4-methylpiperazinyl)pyrimido[4,5-b]benzothiazine, reference compound], the 50% inhibitory concentration (IC50) in series [1] (setting [3]) was found to be 38.5 ± 1.97 µM; in series [2], 17.1 ± 2 µM.
